Assays:
[1] = system: hepatitis B virus transfected hepatoma cell lines, HepG 2.2.15 cells; experiment: Cytotoxicity assay, 2.2.15 cells; assay type: cell-based, human; details: 48 h of drug exposure
[2] = system: rat glioma C6 cells; experiment: Cytotoxicity assay (XTT colorimetric), C6 cells; assay type: cell-based; details: 48 h of drug exposure
[3] = system: transcriptional activity of hTERT; experiment: SEAP reporter assay of hTERT expression, PhTERT-SEAP (H1299); assay type: cell-based, human; details: PhTERT-SEAP(hTERT-H1299)
In short: (§1)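 Read-out: rate of absorbance rise at 405 nm from p-nitrophenyl phosphate (12 mM final) hydrolysis by secreted alkaline phosphatase in heat-treated (65° C, 10 min) culture medium. Drugs at varying amounts were applied for 24 h after a 24 h pre-culture at 37° C.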

[4] = system: non-small-cell lung cancer cells H1299; experiment: MTT relative viability, PhTERT-SEAP (H1299) cells; details: PhTERT-SEAP(hTERT-H1299)
[5] = system: transcriptional activity of hTERT; experiment: SEAP reporter assay of hTERT expression, PhTERT-SEAP (hTERT-BJ1); assay type: cell-based, human; details: PhTERT-SEAP (hTERT-BJ1)
In short: as §1

[6] = system: human hepatoma G2 cells; experiment: Cytotoxicity assay (XTT colorimetric), Hep G2; assay type: cell-based; details: 48 h of drug exposure
[7] = system: hTERT-BJ1 cells; experiment: MTT relative viability, PhTERT-SEAP (hTERT-BJ1) cells; details: PhTERT-SEAP (hTERT-BJ1)

O=C(Nc1ccc(NC(=O)c2ccc(Cl)cc2)c2c1C(=O)c1ccccc1C2=O)c1ccc(Cl)cc1 [VI16, 1,4-Bis(4-chlorobenzoylamido)-9,10-anthracenedione]
IC50 [1]: > 20 µM | IC50 [2]: > 20 µM | Relative SEAP activity (%) ([3]; 1.9 μM): 109 ± 6.8% | SEAP/vibility ([3]; 1.9 μM): 1.23 | Relative SEAP activity (%) ([3]; 19 μM): 118 ± 5.6% | SEAP/vibility ([3]; 19 μM): 1.33 | Relative SEAP activity (%) ([3]; 194 μM): 116 ± 12.3% | SEAP/vibility ([3]; 194 μM): 1.46 | Relative MTT viability (%) ([4]; 1.9 μM): 89 ± 5.5% | Relative MTT viability (%) ([4]; 19 μM): 89 ± 9.5% | Relative MTT viability (%) ([4]; 194 μM): 79 ± 5.6% | Relative SEAP activity (%) ([5]; 1.9 μM): 116 ± 28.6% | SEAP/vibility ([5]; 1.9 μM): 1.05 | Relative SEAP activity (%) ([5]; 19 μM): 112 ± 21.9% | SEAP/vibility ([5]; 19 μM): 1.09 | Relative SEAP activity (%) ([5]; 194 μM): 152 ± 39.7% | SEAP/vibility ([5]; 194 μM): 1.54 | IC50 [6]: > 20 µM | Relative MTT viability (%) ([7]; 1.9 μM): 111 ± 0.8% | Relative MTT viability (%) ([7]; 19 μM): 103 ± 5.9% | Relative MTT viability (%) ([7]; 194 μM): 99 ± 5.2%

O=C(Nc1ccc(NC(=O)c2ccc(F)cc2F)c2c1C(=O)c1ccccc1C2=O)c1ccc(F)cc1F [VI18, 1,4-Bis(2,4-difluorobenzoylamido)-9,10-anthracenedione]
IC50 [1]: > 20 µM | IC50 [2]: > 20 µM | Relative SEAP activity (%) ([3]; 1.9 μM): 93 ± 5.6% | SEAP/vibility ([3]; 1.9 μM): 1.06 | Relative SEAP activity (%) ([3]; 19 μM): 99 ± 5.4% | SEAP/vibility ([3]; 19 μM): 1.17 | Relative SEAP activity (%) ([3]; 192 μM): 99 ± 1.8% | SEAP/vibility ([3]; 192 μM): 1.44 | Relative MTT viability (%) ([4]; 1.9 μM): 87 ± 3.7% | Relative MTT viability (%) ([4]; 19 μM): 85 ± 7.1% | Relative MTT viability (%) ([4]; 192 μM): 69 ± 8.4% | Relative SEAP activity (%) ([5]; 1.9 μM): 48 ± 21.7% | SEAP/vibility ([5]; 1.9 μM): 0.46 | Relative SEAP activity (%) ([5]; 19 μM): 51 ± 18.5% | SEAP/vibility ([5]; 19 μM): 0.50 | Relative SEAP activity (%) ([5]; 192 μM): 48 ± 23.1% | SEAP/vibility ([5]; 192 μM): 0.46 | IC50 [6]: > 20 µM | Relative MTT viability (%) ([7]; 1.9 μM): 104 ± 5.6% | Relative MTT viability (%) ([7]; 19 μM): 101 ± 4.4% | Relative MTT viability (%) ([7]; 192 μM): 103 ± 6.1%

O=C1c2ccccc2C(=O)c2c(NC(=O)C3CCCC3)ccc(NC(=O)C3CCCC3)c21 [VI20, 1,4-Bis(cyclopentaneamido)-9,110-anthracenedione]
IC50 [1]: > 20 µM | IC50 [2]: > 20 µM | Relative SEAP activity (%) ([3]; 2.3 μM): 119 ± 8.5% | SEAP/vibility ([3]; 2.3 μM): 1.11 | Relative SEAP activity (%) ([3]; 23 μM): 118 ± 9.2% | SEAP/vibility ([3]; 23 μM): 1.15 | Relative SEAP activity (%) ([3]; 233 μM): 113 ± 8.9% | SEAP/vibility ([3]; 233 μM): 1.23 | Relative MTT viability (%) ([4]; 2.3 μM): 107 ± 6.1% | Relative MTT viability (%) ([4]; 23 μM): 103 ± 6.1% | Relative MTT viability (%) ([4]; 233 μM): 92 ± 8.6% | Relative SEAP activity (%) ([5]; 2.3 μM): 85 ± 7.7% | SEAP/vibility ([5]; 2.3 μM): 0.81 | Relative SEAP activity (%) ([5]; 23 μM): 93 ± 18.5% | SEAP/vibility ([5]; 23 μM): 0.90 | Relative SEAP activity (%) ([5]; 233 μM): 63 ± 36.5% | SEAP/vibility ([5]; 233 μM): 0.67 | IC50 [6]: > 20 µM | Relative MTT viability (%) ([7]; 2.3 μM): 106 ± 2.3% | Relative MTT viability (%) ([7]; 23 μM): 103 ± 4.4% | Relative MTT viability (%) ([7]; 233 μM): 93 ± 5.7%

O=C1c2ccccc2C(=O)c2c(NC(=O)C3CC3)ccc(NC(=O)C3CC3)c21 [VI21, 1,4-Bis(cyclopropionamido)-9,10-anthracenedione]
IC50 [1]: > 20 µM | IC50 [2]: > 20 µM | Relative SEAP activity (%) ([3]; 2.6 μM): 108 ± 4.9% | SEAP/vibility ([3]; 2.6 μM): 1.14 | Relative SEAP activity (%) ([3]; 26 μM): 106 ± 7.3% | SEAP/vibility ([3]; 26 μM): 1.21 | Relative SEAP activity (%) ([3]; 267 μM): 92 ± 5.9% | SEAP/vibility ([3]; 267 μM): 2.23 | Relative MTT viability (%) ([4]; 2.6 μM): 95 ± 4.2% | Relative MTT viability (%) ([4]; 26 μM): 88 ± 4.2% | Relative MTT viability (%) ([4]; 267 μM): 41 ± 4.6% | Relative SEAP activity (%) ([5]; 2.6 μM): 64 ± 9.5% | SEAP/vibility ([5]; 2.6 μM): 0.62 | Relative SEAP activity (%) ([5]; 26 μM): 54 ± 8.8% | SEAP/vibility ([5]; 26 μM): 0.66 | Relative SEAP activity (%) ([5]; 267 μM): 43 ± 8.3% | SEAP/vibility ([5]; 267 μM): 0.74 | IC50 [6]: > 20 µM | Relative MTT viability (%) ([7]; 2.6 μM): 103 ± 6.8% | Relative MTT viability (%) ([7]; 26 μM): 82 ± 5.9% | Relative MTT viability (%) ([7]; 267 μM): 58 ± 4.1%

O=C(Nc1ccc(NC(=O)c2cc(F)cc(Cl)c2Cl)c2c1C(=O)c1ccccc1C2=O)c1cc(F)cc(Cl)c1Cl [VI23]
IC50 [1]: > 20 µM | IC50 [2]: > 20 µM | Relative SEAP activity (%) ([3]; 1.6 μM): 102 ± 4.1% | SEAP/vibility ([3]; 1.6 μM): 1.04 | Relative SEAP activity (%) ([3]; 16 μM): 102 ± 5.1% | SEAP/vibility ([3]; 16 μM): 0.99 | Relative SEAP activity (%) ([3]; 161 μM): 83 ± 4.0% | SEAP/vibility ([3]; 161 μM): 0.95 | Relative MTT viability (%) ([4]; 1.6 μM): 98 ± 7.0% | Relative MTT viability (%) ([4]; 16 μM): 103 ± 8.7% | Relative MTT viability (%) ([4]; 161 μM): 87 ± 5.1% | Relative SEAP activity (%) ([5]; 1.6 μM): 113 ± 16.0% | SEAP/vibility ([5]; 1.6 μM): 1.02 | Relative SEAP activity (%) ([5]; 16 μM): 131 ± 19.1% | SEAP/vibility ([5]; 16 μM): 1.20 | Relative SEAP activity (%) ([5]; 161 μM): 106 ± 17.3% | SEAP/vibility ([5]; 161 μM): 1.05 | IC50 [6]: > 20 µM | Relative MTT viability (%) ([7]; 1.6 μM): 111 ± 6.8% | Relative MTT viability (%) ([7]; 16 μM): 110 ± 7.1% | Relative MTT viability (%) ([7]; 161 μM): 101 ± 6.6%

O=C(Nc1ccc(NC(=O)c2ccco2)c2c1C(=O)c1ccccc1C2=O)c1ccco1 [VI24, 1,4-Bis(2-furoylamido)-9,10-anthracenedione]
IC50 [1]: > 20 µM | IC50 [2]: > 20 µM | Relative SEAP activity (%) ([3]; 2.3 μM): 99 ± 7.8% | SEAP/vibility ([3]; 2.3 μM): 0.99 | Relative SEAP activity (%) ([3]; 23 μM): 97 ± 4.6% | SEAP/vibility ([3]; 23 μM): 1.30 | Relative SEAP activity (%) ([3]; 234 μM): 90 ± 2.9% | SEAP/vibility ([3]; 234 μM): 2.83 | Relative MTT viability (%) ([4]; 2.3 μM): 101 ± 6.0% | Relative MTT viability (%) ([4]; 23 μM): 75 ± 3.9% | Relative MTT viability (%) ([4]; 234 μM): 32 ± 5.1% | Relative SEAP activity (%) ([5]; 2.3 μM): 39 ± 7.8% | SEAP/vibility ([5]; 2.3 μM): 0.43 | Relative SEAP activity (%) ([5]; 23 μM): 45 ± 11.0% | SEAP/vibility ([5]; 23 μM): 0.65 | Relative SEAP activity (%) ([5]; 234 μM): 37 ± 15.0% | SEAP/vibility ([5]; 234 μM): 0.51 | IC50 [6]: > 20 µM | Relative MTT viability (%) ([7]; 2.3 μM): 91 ± 9.5% | Relative MTT viability (%) ([7]; 23 μM): 69 ± 10.7% | Relative MTT viability (%) ([7]; 234 μM): 72 ± 11.3%

Cc1cc(C(=O)Nc2ccc(NC(=O)c3cc(C)oc3C)c3c2C(=O)c2ccccc2C3=O)c(C)o1 [VI26, 1,4-Bis(2,5-dimethylfuran-3-carbonylamido)-9,10-anthracenedione]
IC50 [1]: > 20 µM | IC50 [2]: > 20 µM | Relative SEAP activity (%) ([3]; 2.0 μM): 104 ± 10.8% | SEAP/vibility ([3]; 2.0 μM): 1.20 | Relative SEAP activity (%) ([3]; 20 μM): 103 ± 10.0% | SEAP/vibility ([3]; 20 μM): 1.46 | Relative SEAP activity (%) ([3]; 207 μM): 98 ± 10.5% | SEAP/vibility ([3]; 207 μM): 2.10 | Relative MTT viability (%) ([4]; 2.0 μM): 87 ± 4.9% | Relative MTT viability (%) ([4]; 20 μM): 71 ± 2.3% | Relative MTT viability (%) ([4]; 207 μM): 47 ± 2.6% | Relative SEAP activity (%) ([5]; 2.0 μM): 84 ± 13.3% | SEAP/vibility ([5]; 2.0 μM): 0.83 | Relative SEAP activity (%) ([5]; 20 μM): 79 ± 14.7% | SEAP/vibility ([5]; 20 μM): 0.78 | Relative SEAP activity (%) ([5]; 207 μM): 81 ± 16.1% | SEAP/vibility ([5]; 207 μM): 0.88 | IC50 [6]: > 20 µM | Relative MTT viability (%) ([7]; 2.0 μM): 101 ± 6.2% | Relative MTT viability (%) ([7]; 20 μM): 101 ± 5.8% | Relative MTT viability (%) ([7]; 207 μM): 93 ± 7.1%

O=C(CSc1ccccc1)Nc1ccc(NC(=O)CSc2ccccc2)c2c1C(=O)c1ccccc1C2=O [VI28, 1,4-Bis(phenylthioacetamido)-9,10-anthracenedione]
IC50 [1]: > 20 µM | IC50 [2]: > 20 µM | Relative SEAP activity (%) ([3]; 1.8 μM): 93 ± 3.2% | SEAP/vibility ([3]; 1.8 μM): 0.89 | Relative SEAP activity (%) ([3]; 18 μM): 92 ± 3.5% | SEAP/vibility ([3]; 18 μM): 0.96 | Relative SEAP activity (%) ([3]; 185 μM): 80 ± 4.0% | SEAP/vibility ([3]; 185 μM): 1.35 | Relative MTT viability (%) ([4]; 1.8 μM): 104 ± 5.6% | Relative MTT viability (%) ([4]; 18 μM): 96 ± 4.3% | Relative MTT viability (%) ([4]; 185 μM): 59 ± 3.8% | Relative SEAP activity (%) ([5]; 1.8 μM): 14 ± 14.7% | SEAP/vibility ([5]; 1.8 μM): 0.12 | Relative SEAP activity (%) ([5]; 18 μM): 23 ± 9.5% | SEAP/vibility ([5]; 18 μM): 0.21 | Relative SEAP activity (%) ([5]; 185 μM): 7 ± 9.6% | SEAP/vibility ([5]; 185 μM): 0.12 | IC50 [6]: > 20 µM | Relative MTT viability (%) ([7]; 1.8 μM): 115 ± 4.8% | Relative MTT viability (%) ([7]; 18 μM): 105 ± 6.7% | Relative MTT viability (%) ([7]; 185 μM): 60 ± 2.3%
